Experimental data from patent US7860552B2, “CNS assay for prediction of therapeutic efficacy for neuropathic pain and other functional illnesses” (The McLean Hospital Corporation, priority 2004, dated 2010).

What was measured:
[1] = system: neuropathic pain; conditions: known efficacy in human neuropathic pain; cited from earlier work
[2] = system: healthy subjects; experiment: fMRI of CNS activation in healthy subjects after a thermal stimulus (>44° C.); format: in vivo, human; conditions: compared with the placebo response, FIG. 2
Experimental: The methods of the invention generally involve the administration of a therapeutic intervention, e.g., a compound, to a subject, e.g., a mammal such as a human, non-human primate, or a rodent (e.g., a rat or mouse). In one embodiment, an acute painful stimulus, e.g., a thermal stimulus, is then administered to the subject. An appropriate time delay may be used in order to achieve appropriate therapeutic effect in the blood and/or CNS prior to administration of the stimulus. Levels of activation of the central nervous system (CNS) of the subject are then measured, typically by a neuroimaging technique such as fMRI. When a therapeutic intervention is being evaluated for efficacy against the functional illness, the levels of activity are examined to determine whether the intervention alters activity in the CNS (FIG. 1). The levels of activity may be determined with reference to one or more specific regions of the CNS, such as those associated, either directly or indirectly with the functional illness, or a general level of activity for the entire CNS, or portion thereof, may be determined without reference to specific anatomical or functional regions. Any alteration in the level of activity may be determined relative to a control, such as levels of activity in a subject treated with placebo or a therapeutic intervention with known efficacy against the functional illness. The method is advantageous in that the subject need not be suffering from the functional illness in order to determine the efficacy of a therapeutic intervention for the illness. […]
The present invention typically employs an imaging technique for measuring the level of activation of the CNS, e.g., by determining blood flow in the CNS. […] In addition, the imaging methods may also be employed to determine a general level of activation for the CNS, e.g., measured as the total number of activated voxels., without regard to the specific regions involved. […]

[3] = system: rats; experiment: fMRI of CNS activation in rats following heat stimulus; format: in vivo, rat; conditions: compared to placebo group, FIG. 6, FIG. 7
Experimental: The methods of the invention may employ non-human mammals, e.g., rats, as the subjects, in which experimental therapeutic interventions are evaluated. […] The left panels show serial coronal slices through the brain. The overall level of activation was decreased in the gabapentin group compared to the placebo group. The right panels show differences in activation in specific circuitry known to be involved in pain processing that was affected in somatosensory regions (SI), emotional regions (nucleus accumbens—NAc), autonomic regions (hypothalamus), and endogenous analgesic regions (periaqueductal gray).

Compound: O=C1CN=C(c2ccccc2Cl)c2cc([N+](=O)[O-])ccc2N1 [clonazepam]
- Efficacy in neuropathic pain [1]: no efficacy

Compound: NCC1(CC(=O)O)CCCCC1 [gabapentin]
- fMRI signal change (CNS activation) following the heat stimulus [2]: decreasing signal change
- Overall level of CNS activation (fMRI) [3]: decreased
- Efficacy in neuropathic pain [1]: efficacy

Compound: CN(C)CCCN1c2ccccc2CCc2ccccc21 [imipramine]
- fMRI signal change (CNS activation) following the heat stimulus [2]: decreasing signal change
- Efficacy in neuropathic pain [1]: efficacy

Compound: O=C(c1ccccc1)c1ccc2n1CCC2C(=O)O (stereo not shown) [ketorolac]
- Efficacy in neuropathic pain [1]: no efficacy

Compound: CS(=O)(=O)c1ccc(C2=C(c3ccccc3)C(=O)OC2)cc1 [rofecoxib]
- Efficacy in neuropathic pain [1]: no efficacy

Compound: CC1(C)O[C@@H]2[C@@H](CO[C@@]3(COS(N)(=O)=O)OC(C)(C)O[C@@H]23)O1 [topiramate]
- fMRI signal change (CNS activation) following the heat stimulus [2]: decreasing signal change
- Efficacy in neuropathic pain [1]: efficacy
